Tested on in the first data set: not given
Assay: not given
Conditions: not given
By melting point is commonly meant the temperature of the solid-liquid transition. `COc1cc2c(cc1OC)[C@@H]1CCCC[C@@H]1N=C2c1ccc([N+](=O)[O-])c([N+](=O)[O-])c1` [Compound 1, (−)-cis-8,9-Dimethoxy-6-(3,4-dinitrophenyl)-1,2,3,4,4a,10b-hexahydrophenanthridine] returned a melting point of 162 to 165 °C.

The next data set relates to PDE4. Nature of the data set: Inhibition of PDE4 activity (method of Bauer and Schwabe, microtiter plates). It is filed as biochemical. The following applies: inhibitory concentration as −log IC50 (mol/l). The procedure: The activity test was carried out according to the method of Bauer and Schwabe, which was adapted to microtiter plates (Naunyn-Schmiedeberg's Arch. Pharmacol. 1980, 311, 193-198). The PDE reaction takes place in the first step here. In a second step, the resulting 5′-nucleotide is cleaved by a 5′-nucloetidase of the snake venom of Crotalus atrox to the uncharged nucleoside. In the third step, the nucleoside is separated from the remaining charged substrate on ion-exchange columns. The columns are eluted directly into minivials, into which 2 ml of scintillator fluid are additionally added for counting, using 2 ml of 30 mM ammonium formate (pH 6.0).
The inhibitory values determined for the compounds according to the invention [inhibitory concentration as −log IC50 (mol/l)] follow from the following Table A, in which the numbers of the compounds correspond to the numbers of the examples.
Regarding `COc1cc2c(cc1OC)[C@@H]1CCCC[C@@H]1N=C2c1ccc([N+](=O)[O-])c([N+](=O)[O-])c1` [Compound 1, (−)-cis-8,9-Dimethoxy-6-(3,4-dinitrophenyl)-1,2,3,4,4a,10b-hexahydrophenanthridine], the “−log IC50 (inhibition of the PDE4 activity)” value was determined as 7.26. `COc1cc2c(cc1OC)[C@@H]1CCCC[C@@H]1N=C2c1cc(OC)c(OC)c(OC)c1` [Compound 4, (−)-cis-8,9-Dimethoxy-6-(3,4,5-trimethoxyphenyl)-1,2,3,4,4a,10b-hexahydrophenanthridine]: the “−log IC50 (inhibition of the PDE4 activity)” value is 6.96. Same read-out and setting: the result for `COc1cc2c(cc1OC)[C@@H]1CCCC[C@@H]1N=C2c1cc(OC)c(OC)c(S(C)(=O)=O)c1` [Compound 5, (−)-cis-6-(3-Methanesulfonyl-4,5-dimethoxyphenyl)-8,9-dimethoxy-1,2,3,4,4a,10b-hexahydrophenanthridine] reads 7.57; that for `COc1cc2c(cc1OC)[C@@H]1CCCC[C@@H]1N=C2c1cc([N+](=O)[O-])cc([N+](=O)[O-])c1` [Compound 3, (−)-cis-8,9-Dimethoxy-6-(3,5-dinitrophenyl)-1,2,3,4,4a,10b-hexahydrophenanthridine], 6.56. Consider `CCOc1cc(C2=N[C@H]3CCCC[C@H]3c3cc(OC)c(OC)cc32)cc(OCC)c1OCC` [Compound 6, (−)-cis-8,9-Dimethoxy-6-(3,4,5-triethoxyphenyl)-1,2,3,4,4a,10b-hexahydrophenanthridine], for which the “−log IC50 (inhibition of the PDE4 activity)” value is 7.81.

Turning to `COc1cc2c(cc1OC)C1CCCCC1N=C2c1cc(C(F)(F)F)cc(C(F)(F)F)c1` (single isomer, unassigned; (-)) [Compound 2, (−)-cis-6-(Bis-3,5-trifluoromethylphenyl)-8,9-dimethoxy-1,2,3,4,4a,10b-hexahydrophenanthridine], the “−log IC50 (inhibition of the PDE4 activity)” value is 6.93.

The values are drawn from patent US6534518B1, “Polysubstituted 6-phenylphenanthridines with PDE-IV inhibiting activity” (Altana Pharma AG, priority 1999, dated 2003).
